Data as given in US10377747B2, “2-arylamino pyridine, pyrimidine or triazine derivatives, preparation method and use thereof” (Wuxi Shuangliang Biotechnology Co., Ltd., priority 2015, dated 2019).
Read-outs that look alike come from different tables or passages of the source.

How the values were obtained:
[1] = tested on: H1975 (non-small-cell lung cancer cells. EGFR L858K/T790M); assay: Tumor cell proliferation and growth inhibition analysis (Cell Titer-Glo, 72 h), H1975; type: cell-based; conditions: Homo sapiens
Text: (§1) […] cell proliferation assay is described as follows.
(§2) Tumor cell proliferation and growth inhibition analysis: H1975 (non-small-cell lung cancer cells. EGFR L858K/T790M) and A431 (human epidermal cancer cells, EGFR wild type) cells were commercially available from the ATCC cell bank. […] The growth medium for A431 cells was DMEM (GIBCO, 11995-065), 10% fetal bovine serum. The influence exerted by the compounds on the proliferation activity of tumor cells was detected by Cell Titer-Glo assay. Tumor cells were exposed to the treatment conditions for 72 h, and the cell density used in each experiment for each cell line was adjusted according to the 72 h cell growth curve. 10 concentration gradients and three-fold dilutions (0.5 nM-10 μM) were set for compounds to be tested, and 3 parallel controls were used for each concentration value.
(§3) Trypsin was used for digesting cells in the logrithmic growth phase to prepare cell suspension, which was counted by a Roche counter and appropriately diluted with complete medium to a final cell concentration of 1˜2×10^3 cell/mL. 384-well plates were seeded with cells, and 22.6 μL were seeded for each well. 3 parallels were set. The plates were incubated in an incubator with 5% CO2 at 37° C. overnight. The compounds were dissolved in DMSO to prepare […] mother liquor. […] 2 μL of compound solution was added into 18 μL of culture medium, and fully mixed. Then 2 μL of mixed solution of compound and culture medium was added into 18 μL of culture medium, and fully mixed. 2.4 μL of mixtures were added into a 384-well plates. […] After cultivation for 72 h, 24 μL of Cell Titer-Glo reagent was added. The contents were mixed on an orbital shaker for 2 min to induce cell lysis. The 384-well plates were incubated at room temperature for 10 min to stabilize the […] signal value. Data was read by Infinite® M1000 PRO (TECAN), and calculated with GraphPad Prism version 5.0. GI50 value was obtained by adjustment using a non-linear regression model of dose response curves.

[2] = tested on: A431 (human epidermal cancer cells, EGFR wild type); assay: Tumor cell proliferation and growth inhibition analysis (Cell Titer-Glo, 72 h), A431; type: cell-based; conditions: A-431, 72 h exposure
Text: as §1, §2, §3

[3] = NCI-H1975, H1975 cells, 72 h exposure, Cell Titer-Glo, read-out: H1975 GI50

| Compound | GI50 [1, 3] [nM] | GI50 [2] [nM] | GI50 ([1]; NCI-H1975, 72 h, read-out: H1975 GI50 (nM)) [nM] |
| --- | --- | --- | --- |
| C=CC(=O)Nc1cc(Nc2ncnc(-c3cccc4cc[nH]c34)n2)c(OC)cc1N1CC(N(C)C)C1 [Example 35, N—(5-((4-(1H-indol-7-yl)-1,3,5-triazin-2-yl)amino)-2-(3-(dimethylamino)azetidin-1-yl)-4-methoxyphenyl)acylamide] | 1560 | 3320 | – |
| C=CC(=O)Nc1cc(Nc2nccc(-c3noc4ccccc34)n2)c(OC)cc1N1CCC(N(C)C)CC1 [Example 3, N-(5-((4-(benzo[d]isoxazol-3-yl)pyrimidin-2-yl)amino)-2-(4-(dimethylamino)piperidin-1-yl)-4-methoxyphenyl)acrylamide] | 82.4 | 1240 | – |
| C=CC(=O)Nc1cc(Nc2nccc(-c3cn(C)c4cccnc34)n2)c(OC(F)F)cc1N1CCC(N(C)C)CC1 [Example 21, N-(4-(difluoromethoxy)-2-(4-(dimethylamino)piperidin-1-yl)-5-((4-(1-methyl-1H-pyrrolo[3,2-b]pyridin-3-yl)pyrimidin-2-yl)amino)phenyl)acrylamide] | 35.9 | 319 | – |
| C=CC(=O)Nc1cc(Nc2ncnc(-c3cccc4cc[nH]c34)n2)c(OC)cc1N(C)CCN(C)C [Example 32, N-(5-((4-(H-indol-7-yl)-1,3,5-triazin-2-yl)amino)-2-((2-(dimethylamino)ethyl)(methyl)amino)-4-methoxyphenyl)acylamide] | 9.4 | 147 | – |
| C=CC(=O)Nc1cc(Nc2nccc(-c3noc4ccccc34)n2)c(OC)cc1N(C)CCN(C)C [Example 1] | 7.3 | ~110 | – |
| C=CC(=O)Nc1cc(Nc2nccc(-c3nn(C)c4ccsc34)n2)c(OC(F)F)cc1N(C)CCN(C)C [Example 25] | 6.5 | 85.8 | – |
| C=CC(=O)Nc1cc(Nc2nccc(-c3noc4ccccc34)n2)c(OC(F)F)cc1N1CCC[C@H]1CN(C)C [Example 10] | 285 | > 1000 | – |
| C=CC(=O)Nc1cc(Nc2nccc(-c3nn(C)c4ccsc34)n2)c(OC(F)F)cc1N1CCC(N(C)C)CC1 [Example 28] | 261 | 5300 | – |
| C=CC(=O)Nc1cc(Nc2nccc(-c3noc4ccccc34)n2)c(OC(F)F)cc1N1CC(N(C)C)C1 [Example 8, N-(5-((4-(benzo[d]isoxazol-3-yl)pyrimidin-2-yl)amino)-4-(difluoromethoxy)-2-(3-(dimethylamino)azetidin-1-yl)phenyl)acylamide] | 26.1 | 299 | – |
| C=CC(=O)Nc1cc(Nc2nccc(-c3noc4ccccc34)n2)c(OC(F)F)cc1N1CCN(C)CC1 [Example 7, N-(5-((4-(benzo[d]isoxazol-3-yl)pyrimidin-2-yl)amino)-4-(difluoromethoxy)-2-(4-methylpiperazin-1-yl)phenyl)acrylamide] | 49 | ~1720 | – |
| C=CC(=O)Nc1cc(Nc2nccc(-c3cn(C)c4cccnc34)n2)c(OC(F)F)cc1N(C)CCN(C)C [Example 18] | 6.7 | 296 | – |
| C=CC(=O)Nc1cc(Nc2nccc(-c3cn(C)c4cccnc34)n2)c(OC(F)F)cc1N1CCN(C)CC1 [Example 19, N-(4-(difluoromethoxy)-5-((4-(1-methyl-1H-pyrrolo[3,2-b]pyridin-3-yl)pyrimidin-2-yl)amino)-2-(4-methylpiperazin-1-yl)phenyl)acrylamide] | 166 | 1440 | – |
| C=CC(=O)Nc1cc(Nc2cc(-c3cnc4ccccn34)ccn2)c(OC)cc1N(C)CCN(C)C [Example 44, N-(2-((2-(dimethylamino)ethyl)(methyl)amino)-5-((4-(imidazo[1,2-a]pyridin-3-yl)pyridin-2-yl)amino)-4-methoxyphenyl)acrylamide] | 104 | 638 | – |
| C=CC(=O)Nc1cc(Nc2nccc(-c3noc4ccccc34)n2)c(OC)cc1N1CCC[C@H]1CN(C)C [Example 4, (S)—N-(5-((4-(benzo[d]isoxazol-3-yl)pyrimidin-2-yl)amino)-2-(2-((dimethno)methyl)pyrrolidin-1-yl)-4-methoxyphenyl)acrylamide] | 844 | ~63400 | – |
| C=CC(=O)Nc1cc(Nc2nccc(-c3nn(C)c4ccsc34)n2)c(OC(F)F)cc1N1CC(N(C)C)C1 [Example 27, N-(4-(difluoromethoxy)-2-(3-(dimethylamino)azetidin-1-yl)-5-((4-(1-methyl-1H-thieno[3,2-c]pyrazol-3-yl)pyrimidin-2-yl)amino)phenyl)acrylamide] | 1100 | 2540 | – |
| C=CC(=O)Nc1cc(Nc2cc(-c3nn(C)c4ccsc34)ccn2)c(OC)cc1N(C)CCN(C)C [Example 41, N-(2-((2-(dimethylamino)ethylmethyl)amino)-4-methoxy-5-((4-(1-methyl-1H-thieno[3,2-c]pyrazol-3-yl)pyridin-2-yl)amino)phenyl)acrylamide] | ~36.5 | ~800 | – |
| C=CC(=O)Nc1cc(Nc2nccc(-c3cn(C)c4cccnc34)n2)c(OC(F)F)cc1N1CCC[C@H]1CN(C)C [Example 22, (S)—N-(4-(difluoromethoxy)-2-(2-((dimethylamino)methyl)pyrrolidin-1-yl)-5-((4-(1-methyl-1H-pyrrolo[3,2-b]pyridin-3-yl)pyrimidin-2-yl)amino)phenyl)acrylamide] | 184 | 724 | – |
| C=CC(=O)Nc1cc(Nc2nccc(-c3cn(C)c4cccnc34)n2)c(OC)cc1N1CCN(C)CC1 [Example 13, N-(4-methoxy-5-((4-(1-methyl-H-pyrrolo[3,2-b]pyridin-3-yl)pyrimidin-2-yl)amino)-2-(4-methylpiperazin-1-yl)phenyl)acrylamide] | 175 | 1560 | – |
| C=CC(=O)Nc1cc(Nc2nccc(-c3nn(C)c4ccsc34)n2)c(OC(F)F)cc1N1CCN(C)CC1 [Example 26, N-(4-(difluoromethoxy)-5-((4-(1-methyl-1H-thieno[3,2-c]pyrazol-3-yl)pyrimidin-2-yl)amino)-2-(4-methylpiperazin-1-yl)phenyl)acrylamide] | 296 | 1130 | – |
| C=CC(=O)Nc1cc(Nc2nccc(-c3cn(C)c4cccnc34)n2)c(OC)cc1N1CCC[C@H]1CN(C)C [Example 16] | 2880 | 2100 | – |
| C=CC(=O)Nc1cc(Nc2cc(-n3nc(C)c4ccccc43)ccn2)c(OC)cc1N(C)CCN(C)C [Example 45, N-(2-((2-(dimethylamino)ethyl)(methyl)amino)-4-methoxy-5-((4-(3-methyl-1H-indazol-1-yl)pyridin-2-yl)amino)phenyl)acrylamide] | 7.6 | 798 | – |
| C=CC(=O)Nc1cc(Nc2cc(-c3cnn4cccnc34)ccn2)c(OC)cc1N(C)CCN(C)C [Example 43, N-(2-((2-(dimethylamino)ethyl)(methyl)amino)-4-methoxy-5-((4-(pyrazolo[1,5-a]pyrimidin-3-yl)pyridin-2-yl)amino)phenyl)acrylamide] | 19.1 | 267 | – |
| C=CC(=O)Nc1cc(Nc2nccc(-c3noc4ccccc34)n2)c(OC(F)F)cc1N1CC2(CCCN2C)C1 [Example 11, N-(5-((4-(benzo[d]isoxazol-3-yl)pyrimidin-2-yl)amino)-4-(difluoromethoxy)-2-(5-methyl-2,5-diazaspiro[3.4]oct-2-yl)phenyl)acrylamide] | 36 | 690 | – |
| C=CC(=O)Nc1cc(Nc2nccc(-c3cn(C)c4cccnc34)n2)c(OC)cc1N1CCC(N(C)C)CC1 [Example 15, N-(2-(4-(dimethylamino)piperidin-1-yl)-4-methoxy-5-((4-(1-methyl-1H-pyrrolo[3,2-b]pyridin-3-yl)pyrimidin-2-yl)amino)phenyl)acrylamide] | 77.5 | 5370 | – |
| C=CC(=O)Nc1cc(Nc2cc(-c3nn(C)c4cccnc34)ccn2)c(OC)cc1N(C)CCN(C)C [Example 42, N-(2-((2-(dimethylamino)ethyl)(methyl)amino)-4-methoxy-5-((4-(1-methyl-1H-pyrazolo[4,3-b]pyridin-3-yl)pyridin-2-yl)amino)phenyl)acrylamide] | 16.3 | 264 | – |
| C=CC(=O)Nc1cc(Nc2ncnc(-c3cccc4ccn(C)c34)n2)c(OC)cc1N(C)CCN(C)C [Example 37, N-(2-((2-(dimethylamino)ethyl)(methyl)amino)-4-methoxy-5-((4-(1-methyl-1H-indol-7-yl)-1,3,5-triazin-2-yl)amino)phenyl)acrylamide] | 441 | 1320 | – |
| C=CC(=O)Nc1cc(Nc2nccc(-c3cn(C)c4ccccc34)n2)c(OC)cc1N(C)CCN(C)C [AZD9291, reference compound] | – | – | 2.8 |
